Reference: ChEMBL document CHEMBL1138459 (Bioorg Med Chem Lett, 2009)
Activity calls are given as the source filed them. The rule behind the calls is not given here.

What was measured:
[1] = target: T1, Peroxisome proliferator-activated receptor alpha (Homo sapiens, UniProt Q07869); test: biochemical
T1 sequence (Q07869 whole entry): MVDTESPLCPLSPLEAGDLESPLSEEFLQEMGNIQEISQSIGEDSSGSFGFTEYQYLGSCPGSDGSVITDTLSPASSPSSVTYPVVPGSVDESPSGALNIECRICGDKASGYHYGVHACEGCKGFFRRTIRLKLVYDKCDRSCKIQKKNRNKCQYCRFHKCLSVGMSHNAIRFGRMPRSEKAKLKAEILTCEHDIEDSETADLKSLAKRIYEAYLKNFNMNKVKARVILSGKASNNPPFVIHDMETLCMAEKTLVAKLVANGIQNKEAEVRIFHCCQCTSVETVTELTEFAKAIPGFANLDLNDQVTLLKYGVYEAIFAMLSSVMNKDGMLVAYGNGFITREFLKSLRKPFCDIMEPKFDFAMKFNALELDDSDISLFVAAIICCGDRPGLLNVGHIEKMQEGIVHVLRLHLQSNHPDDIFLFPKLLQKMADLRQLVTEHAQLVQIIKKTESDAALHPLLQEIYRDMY

[2] = target: T1, Peroxisome proliferator-activated receptor alpha
Mus musculus [3] = test: Antidiabetic activity in overnight fasted db/db mouse diabetic model assessed as reduction in blood glucose level at 0.3 mg/kg/day, po chronically for 12 days challenged with glucose 24 hrs post last dose by OGTT; type: functional, organism-based
[4] = Bioavailability in rat; type: ADME, organism-based; conditions: in vivo
[5] = Bioavailability in cynomolgus monkey; type: ADME, organism-based, Macaca fascicularis; conditions: in vivo
Mus musculus [6] = test: Increase in plasma HDLC level in human ApoA1 transgenic mouse model at 3 mg/kg/day after 12 days by FPLC method; type: functional, organism-based
Rattus norvegicus [7] = test: Antidiabetic activity in Zucker fa/fa rat assessed as glucose infusion rate at 1 mg/kg/day after 7 days by hyperinsulinemic-euglycemic clamp study; type: functional, organism-based
Rattus norvegicus [8] = test: Antidiabetic activity in Zucker fa/fa rat assessed as HOMA-insulin resistance index at 1 mg/kg/day; type: functional, organism-based
Mus musculus [9] = test: Antidiabetic activity in db/db mouse diabetic model assessed as reduction in post prandial blood glucose level at 0.3 mg/kg/day; type: functional, organism-based
[10] = Half life in rat; type: ADME, organism-based; conditions: in vivo
[11] = Half life in cynomolgus monkey; type: ADME, organism-based, Macaca fascicularis; conditions: in vivo
Mus musculus [12] = test: Antidiabetic activity in overnight fasted db/db mouse diabetic model assessed as reduction in blood glucose level at 3 mg/kg/day, po chronically for 12 days challenged with glucose 24 hrs post last dose by OGTT; type: functional, organism-based
Mus musculus [13] = test: Antidiabetic activity in db/db mouse diabetic model assessed as reduction in post prandial blood glucose level at 3 mg/kg/day; type: functional, organism-based
[14] = Total clearance in cynomolgus monkey; type: ADME, organism-based, Macaca fascicularis; conditions: in vivo
Rattus norvegicus [15] = test: Antidiabetic activity in Zucker fa/fa rat assessed as fasting plasma insulin level at 1 mg/kg/day; type: functional
Mus musculus [16] = test: Increase in plasma HDLC level in human ApoA1 transgenic mouse model at 0.3 mg/kg/day after 12 days by FPLC method; type: functional, organism-based
[17] = Total clearance in rat; type: ADME, organism-based; conditions: in vivo
[18] = target: T2, Peroxisome proliferator-activated receptor delta (Homo sapiens, UniProt Q03181)
T2 sequence (Q03181 whole entry): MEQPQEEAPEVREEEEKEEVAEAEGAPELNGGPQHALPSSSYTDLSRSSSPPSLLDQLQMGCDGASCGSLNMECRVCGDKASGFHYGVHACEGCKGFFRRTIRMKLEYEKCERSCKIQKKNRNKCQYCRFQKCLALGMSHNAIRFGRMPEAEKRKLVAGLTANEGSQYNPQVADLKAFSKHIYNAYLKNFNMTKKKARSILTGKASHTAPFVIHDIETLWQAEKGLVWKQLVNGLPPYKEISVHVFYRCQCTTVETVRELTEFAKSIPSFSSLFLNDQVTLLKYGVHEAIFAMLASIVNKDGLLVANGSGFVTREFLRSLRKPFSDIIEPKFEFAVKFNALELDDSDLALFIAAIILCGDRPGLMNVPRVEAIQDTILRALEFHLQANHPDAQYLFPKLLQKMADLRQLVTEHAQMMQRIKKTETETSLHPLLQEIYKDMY

Mus musculus [19] = test: Increase in plasma HDLC level in human ApoA1 transgenic mouse model at 300 mg/kg/day after 12 days by FPLC method; type: functional, organism-based
Rattus norvegicus [20] = test: Antidiabetic activity in Zucker fa/fa rat assessed as HOMA-insulin resistance index at 10 mg/kg/day; type: functional, organism-based
Mus musculus [21] = test: Increase in plasma HDLC level in human ApoA1 transgenic mouse model at 10 mg/kg/day after 12 days by FPLC method; type: functional, organism-based
Rattus norvegicus [22] = test: Antidiabetic activity in Zucker fa/fa rat assessed as fasting plasma insulin level at 10 mg/kg/day; type: functional
Rattus norvegicus [23] = test: Antidiabetic activity in Zucker fa/fa rat assessed as glucose infusion rate at 10 mg/kg/day after 7 days by hyperinsulinemic-euglycemic clamp study; type: functional, organism-based
Rattus norvegicus [24] = test: Antidiabetic activity in Zucker fa/fa rat assessed as HOMA-insulin resistance index at 3 mg/kg/day; type: functional, organism-based
Rattus norvegicus [25] = test: Antidiabetic activity in Zucker fa/fa rat assessed as glucose infusion rate at 3 mg/kg/day after 7 days by hyperinsulinemic-euglycemic clamp study; type: functional, organism-based

SMILES	IC50 [1]	EC50 [2]	further results
CCO[C@@H](Cc1ccc(OCCc2nc(-c3ccc(-c4ccccc4)cc3)oc2C)c2ccsc12)C(=O)O	194 nM	167 nM	
Cc1oc(-c2ccccc2)nc1CCOc1ccc(C[C@H](OCC2CC2)C(=O)O)c2sccc12	21 nM	27 nM	
Cc1oc(-c2ccc(C(C)C)cc2)nc1CCOc1ccc(C[C@H](OCC2CC2)C(=O)O)c2sccc12	37 nM	16 nM	
CCO[C@@H](Cc1ccc(OCCc2nc(-c3ccc(C(F)(F)F)cc3)oc2C)c2ccccc12)C(=O)O	905 nM	11 nM	
CCCCCCOC(Cc1ccc(OCCc2nc(-c3ccccc3)oc2C)c2ccsc12)C(=O)O (racemic)	120 nM	249 nM	
CO[C@@H](Cc1ccc(OCCc2nc(-c3ccccc3)oc2C)c2ccsc12)C(=O)O [ALEGLITAZAR]			Activity (Mus musculus [3]): Active; bioavailability [4]: 70%; bioavailability [5]: 68%; Activity (Mus musculus [6]): Active; Activity (Rattus norvegicus [7]): Active; Activity (Rattus norvegicus [8]): Active; Activity (Mus musculus [9]): Active; half-life [10]: 4 h; half-life [11]: 12.9 h; Activity (Mus musculus [12]): Active; Activity (Mus musculus [13]): Active; clearance [14]: 1.6 mL/min/kg; Activity (Rattus norvegicus [15]): 773 ng/mL; Activity (Mus musculus [16]): Active; clearance [17]: 6.2 mL/min/kg
CO[C@@H](Cc1ccc(OCCc2nc(-c3ccc(C(C)C)cc3)oc2C)c2ccsc12)C(=O)O	45 nM	20 nM	
CO[C@@H](Cc1ccc(OCCc2nc(-c3ccc(C(F)(F)F)cc3)oc2C)c2ccsc12)C(=O)O	53 nM	2 nM	
COC(Cc1ccc(OCCc2nc(-c3ccccc3C)oc2C)c2ccccc12)C(=O)O (racemic)	432 nM	123 nM	
CO[C@@H](Cc1ccc(OCCc2nc(-c3ccccc3)oc2C)c2sccc12)C(=O)O	28 nM	157 nM	EC50 [18]: 137 nM
CC(C)(Oc1ccc(C(=O)c2ccc(Cl)cc2)cc1)C(=O)O [FENOFIBRIC ACID]	106000 nM	69000 nM	Activity (Mus musculus [19]): Active
CCCOC(Cc1ccc(OCCc2nc(-c3ccccc3)oc2C)c2ccccc12)C(=O)O (racemic)	69 nM	87 nM	
Cc1oc(-c2ccccc2)nc1CCOc1ccc(CC(OCC(C)C)C(=O)O)c2sccc12 (racemic)	239 nM	48 nM	
Cc1oc(-c2ccccc2)nc1CCOc1ccc(C[C@H](OCC(F)(F)F)C(=O)O)c2sccc12	60 nM	555 nM	
COc1cc(OC)cc(-c2nc(CCOc3ccc(C[C@H](OC)C(=O)O)c4sccc34)c(C)o2)c1	48 nM	61 nM	EC50 [18]: 678 nM
CC(=O)c1ccccc1N[C@@H](Cc1ccc(OCCc2nc(-c3ccccc3)oc2C)cc1)C(=O)O	633 nM	284 nM	Activity (Rattus norvegicus [20]): Active; Activity (Mus musculus [21]): inactive; Activity (Rattus norvegicus [22]): 776 ng/mL; Activity (Rattus norvegicus [23]): Active
CCO[C@@H](Cc1ccc(OCCc2nc(-c3ccc(C(F)(F)F)cc3)oc2C)c2ccsc12)C(=O)O	63 nM	89 nM	
CN(CCOc1ccc(CC2SC(=O)NC2=O)cc1)c1ccccn1 (stereo not given)			Activity (Rattus norvegicus [24]): Active; Activity (Rattus norvegicus [25]): Active; Activity (Mus musculus [9]): Active; Activity (Mus musculus [13]): Active
Cc1oc(-c2ccc(-c3ccccc3)cc2)nc1CCOc1ccc(C[C@H](OCC(F)(F)F)C(=O)O)c2ccccc12	429 nM	987 nM	
CCO[C@@H](Cc1ccc(OCCc2nc(-c3ccccc3)oc2C)c2sccc12)C(=O)O	333 nM	58 nM	
CCO[C@@H](Cc1ccc(OCCc2nc(-c3ccccc3)oc2C)c2ccccc12)C(=O)O	198 nM	11 nM	EC50 [18]: 169 nM
